Assay type in all cases: cell-based, mouse
The test system of assay [1] is syndecan-1 gene. Nature of the assay: Nuclear run-off of syndecan-1 transcription in 3T3NIH cells. The procedure:
The same cells were exposed to 10 ng/ml of FGF-2 for 4 hours and 24 hours with or without exposure to FGF (Control) followed by the isolation of nuclei for the run-off experiment. c-jun or nur transcription was used as a positive control and β-actin as a loading control. In nuclei isolated 4 hours after FGF exposure the level of transcription of the syndecan-1 gene was elevated as were the levels for c-jun and nur as positive controls.

Assay [2] relates to syndecan-1 gene. Nature of the assay: Syndecan-1 mRNA quantification in 3T3NIH cells exposed to FGF-2. The note with it: 3T3NIH cells, 10 ng/ml FGF-2. The source says: Northern Blot—RNA was isolated from 3T3 and NMuMG cells using 4 M guanidine isothiocyanate and CsCl density centrifugation (Chirgwin et al., Biochemistry 18:5294-5299 (1979)). RNA samples were size-separated on a 1% agarose formaldehyde gel, transferred to a GeneScreen Plus™ membrane (New England Nuclear) and hybridized with a multi-prime (Amersham) labeled partial cDNA clone for mouse syndecan (PM-4) (Saunders et al., J. Cell Biol. 108:1547-1556 (1989)). After hybridization, the membrane was washed in 2×SSC and 1.0% SDS at 65° C. (high stringency conditions). For rehybridization with glyceraldehyde-3-phosphate-dehydrogenase (GAPDH; Fort et al., Nucleic Acid Res. 13:1431-1442 (1985)), the bound PM-4 probe was removed as recommended by the manufacturer of the filter (NEN).
Following incubation with FGF-2, syndecan MRNA was isolated and quantified. Control incubations without FGF-2 were also performed. Syndecan mRNA was isolated and quantified […] FGF-2 treatment following 6, 12, and 24 hr incubations. The quantification of syndecan mRNA production can be seen in FIG. 11a. GAPDH mRNA was used as a loading control. […] The enhancement appears to be maximal at about 6 hrs of FGF-2 incubation, and decreases thereafter. In the Figure, two individual exposures for each time point are presented.

For assay [3], the system named is syndecan-1 enhancer element (pXb6). Put plainly: CAT reporter assay of syndecan upstream fragment pXb6 in 3T3 NIH cells. The note with it: 3T3NIH cells transiently transfected; FGF-2 alone. The source says: Determination of Mouse Syndecan Promoter and Enhancer Activities. The mouse syndecan-1 gene has been cloned and characterized up to −10 kbs upstream from the transcription start site. To determine the specific activities of different proximal promoter regions (up to −2 kbs from the start site) and enhancer regions (from −2 to −10 kbs) we have made plasmid constructs in which these regions were cloned into pCAT basic or pCAT promoter vectors, containing the CAT reporter gene. The reporter CAT gene produces the enzyme chloramphenicol acetyltransferase, which transfers the n-butyryl moiety of n-butyryl CoA to chloramphenicol. […]
The plasmid constructs were transiently transfected into eukaryotic cells by calcium phosphate precipitation simultaneously with a β-Galactosidase expressing vector to determine transfection efficiency. […] This was incubated from 2 hours to overnight and the color reaction was measured spectrophotometrically at 420 nm.
CAT activity was determined by adding 0.25 M Tris buffer, 25 ng n-butyryl CoA and 0.0626 μCi of ^14C-chloramphenicol to the cytoplasmic extract. Samples were incubated overnight, extracted with xylene and the radioactivity present was measured by scintillation counting. CAT activity was corrected for transfection efficiency as determined by assays of β-galactosidase activity. […]
On the technique in general: In a reporter assay the amount or activity of a reporter protein is the signal.

Regarding “FGF-2: Basic fibroblast growth factor (FGF-2 or bFGF); recombinant human”, the “transcription of syndecan-1 (run-off)” value in the assay with syndecan-1 gene [1] (after 24 hours of 10 ng/ml FGF-2) is given as “not detectable”. The “level of transcription of the syndecan-1 gene (run-off)” value in the assay with syndecan-1 gene [1] (nuclei isolated 4 hours after 10 ng/ml FGF exposure) was “elevated”. Moreover, in the assay on syndecan-1 gene [2], the “time of maximal enhancement of syndecan mRNA” value is listed as “about 6 hrs”. In addition, the “syndecan mRNA expression” value in the assay on syndecan-1 gene [2] (after 4 hrs) is recorded as “significantly enhanced (several fold)”. The “CAT gene expression from plasmid pXb6” value in assay [3] is “increase in CAT gene expression”.

Source of the values: patent US6492344B1, “Syndecan enhancer element and syndecan stimulation of cellular differentiation” (Biotie Therapies Corp., priority 1993, dated 2002).
